This passage reports EC50 results from patent US20260137819A1 (Radionetics Oncology, Inc., priority 2022, published 2026).

pEC50: −log10 of the molar value. Where only a bound is given, the exact number is not on record here.

The target in this test is T1, human follicle-stimulating hormone receptor (FSHR) (Homo sapiens, UniProt P23945).
T1 construct: host or cells: CHO-K1
T1 sequence (P23945 18-695): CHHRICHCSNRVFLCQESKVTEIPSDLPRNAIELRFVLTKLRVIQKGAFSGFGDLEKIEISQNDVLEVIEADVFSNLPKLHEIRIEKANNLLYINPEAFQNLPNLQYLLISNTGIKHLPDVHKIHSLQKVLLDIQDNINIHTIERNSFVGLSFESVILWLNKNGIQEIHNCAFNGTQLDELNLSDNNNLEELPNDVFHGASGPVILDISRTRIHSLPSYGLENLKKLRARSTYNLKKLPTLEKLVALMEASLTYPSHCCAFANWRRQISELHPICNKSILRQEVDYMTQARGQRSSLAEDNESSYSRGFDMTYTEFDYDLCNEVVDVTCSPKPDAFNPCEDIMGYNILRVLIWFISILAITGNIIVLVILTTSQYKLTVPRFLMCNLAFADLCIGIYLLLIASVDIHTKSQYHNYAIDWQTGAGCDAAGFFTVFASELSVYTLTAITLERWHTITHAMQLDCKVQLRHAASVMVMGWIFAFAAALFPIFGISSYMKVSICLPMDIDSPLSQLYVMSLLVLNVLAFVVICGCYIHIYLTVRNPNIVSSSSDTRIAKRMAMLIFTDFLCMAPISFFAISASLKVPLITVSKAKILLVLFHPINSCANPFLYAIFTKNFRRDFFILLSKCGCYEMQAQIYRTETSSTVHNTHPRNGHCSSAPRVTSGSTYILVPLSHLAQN
As to the kind of experiment: Measurement of agonist cAMP production by activation of human FSHR. Format: cell-based. Particulars: CHO-K1 human FSHR cells, 30 minutes at 37° C., HTRF cAMP kit; read-out: hFSHR Agonist cAMP EC50. In short, it runs like this:
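cAMP output was measured by HTRF after 30 min at 37 °C agonist exposure (0–10,000 nM final) in stably FSHR-transfected CHO-K1 cells. Lysate cAMP was read off a standard curve and fitted to obtain half-maximal EC50.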
(cAMP levels reflect the balance of adenylyl cyclase and phosphodiesterase activity.)
As for `COc1cc2c(cc1-c1cncc(NC(=O)CCCNC(=O)[C@H](N)CCCCNC(=O)CN3CCN(CC(=O)O)CCN(CC(=O)O)CCN(CC(=O)O)CC3)c1)-c1c(c(C(=O)N3CCOCC3(C)C)nn1-c1cc(F)cc(F)c1)CO2` [Compound 58, (R)-2,2′,2″-(10-(2-((5-amino-6-((4-((5-(1-(3,5-difluorophenyl)-3-(3,3-dimethylmorpholine-4-carbonyl)-7-methoxy-1,4-dihydrochromeno[4,3-c]pyrazol-8-yl)pyridin-3-yl)amino)-4-oxobutyl)amino)-6-oxohexyl)amino)-2-oxoethyl)-1,4,7,10-tetraazacyclododecane-1,4,7-triyl)triacetic acid--2,2,2-trifluoroacetic acid (1/1)], the negative-log EC50 (pEC50) was 7.00 to 8.00. Take `COc1cc2c(cc1-c1cncc(NC(=O)CN(C)C(=O)CN(C)C(=O)CN(C)C(=O)CN(C)C(=O)CN(C)C(=O)CCNC(=O)CN3CCN(CC(=O)O)CCN(CC(=O)O)CCN(CC(=O)O)CC3)c1)-c1c(c(C(=O)N3CCOCC3(C)C)nn1-c1cc(F)cc(F)c1)CO2` [Compound 59]: the pEC50 is less than 7.00. Turning to `COc1cc2c(cc1-c1cncc(NC(=O)CCC(=O)N(CCOCCOCCC(=O)O)C3CCN(C(=O)CN4CCN(CC(=O)O)CCN(CC(=O)O)CCN(CC(=O)O)CC4)CC3)c1)-c1c(c(C(=O)N3CCOCC3(C)C)nn1-c1cc(F)cc(F)c1)CO2` [Compound 60, 2,2′,2″-(10-(2-(4-(N-(2-(2-(2-carboxyethoxy)ethoxy)ethyl)-4-((5-(1-(3,5-difluorophenyl)-3-(3,3-dimethylmorpholine-4-carbonyl)-7-methoxy-1,4-dihydrochromeno[4,3-c]pyrazol-8-yl)pyridin-3-yl)amino)-4-oxobutanamido)piperidin-1-yl)-2-oxoethyl)-1,4,7,10-tetraazacyclododecane-1,4,7-triyl)triacetic acid--formic acid (1/1)], the negative logarithm of the EC50 (pEC50) is 7.00 to 8.00. Under `COc1cc2c(cc1-c1cncc(NC(=O)CNC(=O)CC[C@@H](NC(=O)CN3CCN(CC(=O)O)CCN(CC(=O)O)CCN(CC(=O)O)CC3)C(=O)O)c1)-c1c(c(C(=O)N3CCOCC3(C)C)nn1-c1cc(F)cc(F)c1)CO2` [Compound 61, (R)-2,2′,2″-(10-(2-((1-carboxy-4-((2-((5-(1-(3,5-difluorophenyl)-3-(3,3-dimethylmorpholine-4-carbonyl)-7-methoxy-1,4-dihydrochromeno[4,3-c]pyrazol-8-yl)pyridin-3-yl)amino)-2-oxoethyl)amino)-4-oxobutyl)amino)-2-oxoethyl)-1,4,7,10-tetraazacyclododecane-1,4,7-triyl)triacetic acid] stands 7.00 to 8.00; under `COc1cc2c(cc1-c1cncc(NCCCNC(=O)CCOCCNC(=O)CN3CCN(CC(=O)O)CCN(CC(=O)O)CCN(CC(=O)O)CC3)c1)-c1c(c(C(=O)N3CCOCC3(C)C)nn1-c1cc(F)cc(F)c1)CO2` [Compound 62], 7.00 to 8.00. Under `COc1cc2c(cc1-c1cccc(NC(=O)C3CCC(CNC(=O)C(CS(=O)(=O)O)NC(=O)CN4CCN(CC(=O)O)CCN(CC(=O)O)CCN(CC(=O)O)CC4)CC3)c1)-c1c(c(C(=O)N3CCOCC3(C)C)nn1-c1cc(Cl)cc(Cl)c1)CO2` [Compound 65, 2,2′,2″-(10-(2-(((R)-1-((((1r,4R)-4-((3-(1-(3,5-dichlorophenyl)-3-(3,3-dimethylmorpholine-4-carbonyl)-7-methoxy-1,4-dihydrochromeno[4,3-c]pyrazol-8-yl)phenyl)carbamoyl)cyclohexyl)methyl)amino)-1-oxo-3-sulfopropan-2-yl)amino)-2-oxoethyl)-1,4,7,10-tetraazacyclododecane-1,4,7-triyl)triacetic acid] stands 7.00 to 8.00; under `COc1cc2c(cc1-c1cccc(NC(=O)CN3CCC(NC(=O)[C@H](CS(=O)(=O)O)NC(=O)CN4CCN(CC(=O)O)CCN(CC(=O)O)CCN(CC(=O)O)CC4)CC3)c1)-c1c(c(C(=O)N3CCOCC3(C)C)nn1-c1cc(Cl)cc(Cl)c1)CO2` [Compound 66], 7.00 to 8.00. In the case of `COc1cc2c(cc1-c1cncc(NCCOCCOCCOCCOCCNC(=O)[C@H](CS(=O)(=O)O)NC(=O)CN3CCN(CC(=O)O)CCN(CC(=O)O)CCN(CC(=O)O)CC3)c1)-c1c(c(C(=O)N3CCOCC3(C)C)nn1-c1cc(Cl)cc(Cl)c1)CO2` [Compound 67, (R)-2,2′,2″-(10-(20-((5-(1-(3,5-dichlorophenyl)-3-(3,3-dimethylmorpholine-4carbonyl)-7-methoxy-1,4-dihydrochromeno|4,3-c|pyrazol-8-yl)pyridin-3-yl)amino)-2,5-dioxo-4-(sulfomethyl)-9,12,15,18-tetraoxa-3,6-diazaicosyl)-1,4,7,10-tetraazacyclododecane-1,4,7-triyl)triacetic acid--2,2,2-trifluoroacetic acid (1/1)], the pEC50 is greater than 8.00. The value for `COc1cc2c(cc1-c1cncc(OCCOCCOCCOCCOCCNC(=O)[C@H](CS(=O)(=O)O)NC(=O)CN3CCN(CC(=O)O)CCN(CC(=O)O)CCN(CC(=O)O)CC3)c1)-c1c(c(C(=O)N3CCOCC3(C)C)nn1-c1cc(Cl)cc(Cl)c1)CO2` [Compound 68, (R)-2,2′,2″-(10-(20-((5-(1-(3,5-dichlorophenyl)-3-(3,3-dimethylmorpholine-4carbonyl)-7-methoxy-1,4-dihydrochromeno|4,3-c|pyrazol-8-yl)pyridin-3-yl)oxy)-2,5-dioxo-4-(sulfomethyl)-9,12,15,18-tetraoxa-3,6-diazaicosyl)-1,4,7,10-tetraazacyclododecane-1,4,7-triyl)triacetic acid] was greater than 8.00; that for `COc1cc2c(cc1-c1cccc(NC(=O)CCOCCOCCNC(=O)[C@H](CS(=O)(=O)O)NC(=O)CN3CCN(CC(=O)O)CCN(CC(=O)O)CCN(CC(=O)O)CC3)c1)-c1c(c(C(=O)N3CCOCC3(C)C)nn1-c1cc(Cl)cc(Cl)c1)CO2` [Compound 69] was greater than 8.00; that for `COc1cc2c(cc1-c1cccc(NCCOCCOCCOCCOCCNC(=O)[C@H](CS(=O)(=O)O)NC(=O)CN3CCN(CC(=O)O)CCN(CC(=O)O)CCN(CC(=O)O)CC3)c1)-c1c(c(C(=O)N3CCOCC3(C)C)nn1-c1cc(Cl)cc(Cl)c1)CO2` [Compound 71] was greater than 8.00. The value for `COc1cc2c(cc1-c1cncc(COCCOCCOCCOCCNC(=O)[C@H](CS(=O)(=O)O)NC(=O)CN3CCN(CC(=O)O)CCN(CC(=O)O)CCN(CC(=O)O)CC3)c1)-c1c(c(C(=O)N3CCOCC3(C)C)nn1-c1cc(Cl)cc(Cl)c1)CO2` [Compound 72, (R)-2,2′,2″-(10-(1-(5-(1-(3,5-dichlorophenyl)-3-(3,3-dimethylmorpholine-4carbonyl)-7-methoxy-1,4-dihydrochromeno|4,3-c|pyrazol-8-yl)pyridin-3-yl)-15,18-dioxo-16-(sulfomethyl)-2,5,8,11-tetraoxa-14,17-diazanonadecan-19-yl)-1,4,7,10-tetraazacyclododecane-1,4,7-triyl)triacetic acid] was 7.00 to 8.00; that for `COc1cc2c(cc1-c1cccc(OCCCNC(=O)[C@@H](CCCNC(=N)N)NC(=O)CCNC(=O)CN3CCN(CC(=O)O)CCN(CC(=O)O)CCN(CC(=O)O)CC3)c1)-c1c(c(C(=O)N3CCOCC3(C)C)nn1-c1cc(Cl)cc(Cl)c1)CO2` [Compound 73] was greater than 8.00; that for `COc1cc2c(cc1-c1cccc(OCCCNC(=O)[C@@H](CCC(=O)O)NCCOCCNC(=O)[C@H](CS(=O)(=O)O)NC(=O)CN3CCN(CC(=O)O)CCN(CC(=O)O)CCN(CC(=O)O)CC3)c1)-c1c(c(C(=O)N3CCOCC3(C)C)nn1-c1cc(Cl)cc(Cl)c1)CO2` [Compound 74, 2,2′,2″-(10-((4R,13R)-13-(2-carboxyethyl)-18-(3-(1-(3,5-dichlorophenyl)-3(3,3-dimethylmorpholine-4-carbonyl)-7-methoxy-1,4-dihydrochromeno[4,3-c]pyrazol-8-yl)phenoxy)-2,5,14-trioxo-4-(sulfomethyl)-9-oxa-3,6,12,15-tetraazaoctadecyl)-1,4,7,10-tetraazacyclododecane-1,4,7-triyl)triacetic acid--2,2,2-trifluoroacetic acid (1/1)] was 7.00 to 8.00. Take `COc1cc2c(cc1-c1cccc(OCCOCCOCCOCCOCCNC(=O)[C@H](CS(=O)(=O)O)NC(=O)CN3CCN(CC(=O)O)CCN(CC(=O)O)CCN(CC(=O)O)CC3)c1)-c1c(c(C(=O)N3CC(=O)NCC3(C)C)nn1-c1cc(Cl)cc(Cl)c1)CO2` [Compound 75]: the pEC50 is 7.00 to 8.00. Under `COc1cc2c(cc1-c1cncc(OCCOCCOCCOCCOCCNC(=O)[C@H](CS(=O)(=O)O)NC(=O)CN3CCN(CC(=O)O)CCN(CC(=O)O)CCN(CC(=O)O)CC3)c1)-c1c(c(C(=O)N3CCCN(C(=O)C4CCC4)CC3)nn1-c1cccs1)CO2` [Compound 76, (R)-2,2′,2″-(10-(20-((5-(3-(4-(cyclobutanecarbonyl)-1,4-diazepane-1carbonyl)-7-methoxy-1-(thiophen-2-yl)-1,4-dihydrochromeno[4,3-c]pyrazol-8-yl)pyridin-3-yl)oxy)-2,5-dioxo-4-(sulfomethyl)-9,12,15,18-tetraoxa-3,6-diazaicosyl)-1,4,7,10-tetraazacyclododecane-1,4,7-triyl)triacetic acid] stands 7.00 to 8.00.

The term pEC50 denotes the EC50 on a negative log10 scale, so that one unit is a factor of ten.
